{"source": "paper PMC3454376", "about": "“Salidroside Improves Behavioral and Histological Outcomes and Reduces Apoptosis via PI3K/Akt Signaling after Experimental Traumatic Brain Injury” (PLoS ONE, 2012)", "tested_on": "mice subjected to controlled cortical impact injury", "assay": "Rotarod motor test after CCI", "type": "in vivo", "experimental": "All animal procedures were approved by the Animal Research Committee at Cheng Hsin General Hospital (Animal permit number CHIACUC 101–08), and all procedures complied with the Guide for the Care and Use of Laboratory Animals published by the US National Institutes of Health (NIH Publication No. 85–23, revised 1996). Animals were housed under a 12-h light/dark cycle and at constant temperature (21–25°C) and humidity (45–50%). They were allowed free access to pellet chow and water. TBI in mice was induced by a CCI injury model as previously described. Briefly, 8-week-old male C57BL/6 mice (weighing 22–25 g) were anesthetized through the use of intraperitoneal injection of sodium pentobarbital (65 mg/kg; Rhone Merieux, Harlow, UK) and placed in a stereotaxic frame. A 5 mm craniotomy was performed over the right parietal cortex, centered on the coronal suture and 0.1 mm lateral to the sagittal suture, and injury to dura was avoided. […] Body temperature was monitored throughout the surgery by a rectal probe; temperature was maintained at 37.0±0.5°C using a heated pad. […]\nThree sets of experiments were performed. […] To determine the optimal dose of salidroside, a pilot study was performed using 2 different doses (20 and 50 mg/kg) administered 10 min after injury, and neurological deficits and tissue damage were evaluated as the main outcomes. […]"}
{"compound": "OC[C@H]1O[C@@H](OCCc2ccc(O)cc2)[C@H](O)[C@@H](O)[C@@H]1O", "note": "[SALD, salidroside]", "values": [{"measurement": "rotarod performance versus vehicle group", "setting": "20 mg/kg ip 10 min after CCI, whole observation period (28 days), all P<0.05", "value": "significantly better performance"}, {"measurement": "rotarod outcome versus vehicle group", "setting": "50 mg/kg ip 10 min after CCI, only at days 14 and 28, P<0.05", "value": "significantly improved"}]}
